Results: US20250230138A1, “COMPOUNDS HAVING A T-STRUCTURE FORMED BY AT LEAST FOUR CYCLES FOR USE IN THE TREATMENT OF CANCER AND OTHER INDICATIONS” (TheRas, Inc., priority 2022, published 2025)
Read-outs that look alike come from different tables or passages of the source.

Experiments:
[1] = biological target: Cys242 in human PIK3CA (157-299) (Homo sapiens (Human), UniProt P42336); assay: Covalent modification assay using MALDI-TOF MS; assay type: biochemical; conditions: 4 h reaction time point
Method: Matrix-Assisted Laser Desorption Ionization-Time of Flight Mass Spectrometry (MALDI-TOF MS) analysis of covalent modification of Cys242 in human PIK3CA (157-299) was performed.
Reaction: 3.33 μM or 1 μM of PIK3CA (157-299) protein (produced in-house by Protein Expression Laboratory, FNLCR/Leidos Biomed) in 20 mM HEPES buffer containing 150 mM NaCl, 2 mM MgCl2, pH 7.3 was prepared freshly before assay. Twelve-μL aliquots of protein were dispensed onto low volume 384-well plate, then 470 nL DMSO and 30 nL of tested compounds from 10 mM DMSO stocks were added to appropriate wells using ECHO 555 acoustic liquid handler (Labcyte Inc.). For each reaction/assay, three blanks were prepared by mixing 12 μL of protein solution with 500 nL DMSO. The wells content was carefully mixed by aspiration, and then the plate was sealed by an adhesive cover, centrifuged at 931 g for 1 minute, and kept in the dark at room temperature until 15 min, 30 min, 2 h, or 4 h collections.
Targetpretreatment: Before each assay MALDI target (Bruker MPT 384 ground steel BC) was pre-treated by pipetting on each spot 0.75 μL of saturated sinapinic acid in acetonitrile (ACN).
Sample preparation: At collection time point, 2 μL of reaction mixtures were pipetted out into […] MALDI matrix solution (saturated solution of sinapinic acid in 1:1 ACN:water solution containing 0.15% trifluoroacetic acid (TFA)) deposited on 384 well polypropylene plate. The resulting solution was mixed by aspiration, centrifuged at 931 g for 1 minute, then 1.5 μL aliquots were dispensed on pre-treated MALDI target using Beckman Coulter Biomek FX^P 96/384-Span-8 Laboratory Automation Workstation. Finally, the MALDI target was dried under a mild vacuum to produce spots with a fine crystalline structure.
Measurements: MALDI-TOF measurements were performed on Bruker Daltonics rapifleX Tissuetyper TOF-TOF mass spectrometer using linear mode and mass ranging from 16.0 to 19.6 kDa. Detector gain was set to 0.64×(459 V), sample rate to 5 GS/s, real-time smoothing to medium (175 MHz), laser smart beam pattern was set to “Custom” single smartbeam beam scan with a scan range of 40 μm on both X and Y axis, and the laser frequency was 10000 Hz. Spectra were automatically collected using the custom AutoXecute method. Laser power was auto adjusted using fuzzy control. The peak selection range was set to be between 16.0 and 18.5 kDa. Peak evaluation uses a half-width parameter set to be smaller than 40 Da for processed spectrograms (centroid peak detection; smoothed by SavitzkyGolay algorithm using 7 m/z width and 2 cycles; baseline was subtracted using a median algorithm with flatness 1 and median level 0). Fuzzy control used Proteins/Oligonucleotides protocol with minimum half-width 1/10 times above threshold. Up to 40000 satisfactory shots were collected in 10000 short steps. Dynamic termination was implemented to finish data collection when the peak signal/noise ratio was reaching a value of 1000.
Spectra processing: Spectra were smoothed by SavitzkyGolay algorithm using 7 m/z width and three cycles. Centroid peak detection algorithm was used with signal to noise threshold set to 6, relative intensity threshold 3%, peak width 10 m/z, and median baseline subtraction using flatness of 1 and the median level of 0.1. Peak intensity and area under the peak were evaluated and recorded for all peaks between 16.0 and 19.5 kDa.
Calculation of percent modification: Percent modification was calculated as a ratio of peak height for protein modified by compound to the sum of the peak height of remaining protein plus peak height for protein modified by a compound. If multiple modifications were observed each was calculated as a ratio of peak height for given modification versus the sum of peak heights for all observed protein species.

pAKT in BT474 cells = assay: Cell-based pAKT HTRF assay in BT474 cells; conditions: BT474 cells, 4 hr incubation, read-out: pAKT inhibition IC50 in BT474 cells
Method: On Day 1, cells were seeded into 96-well plates at 2.5×10^4 cells/well in complete growth media (DMEM, 10% FBS). On Day 2, cells were treated with compounds at 0.25% DMSO. The source plate was created with compounds diluted in media at 5-fold the final assay concentration. The compounds are run in a 9-point concentration curve starting at 3 μM, with a 3-fold dilution between concentrations. 20 μL was transferred onto the cell plates (final volume in wells was 100 μL). Plates were harvested after 4 hr incubation by aspirating media and adding kit-supplied 1× supplemented lysis buffer to all wells (75 μL per well). Plates were then placed on a plate shaker and incubated at 850 rpm for an additional 30 min. The antibody mixture solution was prepared by diluting aliquoted d2 and Eu Cryptate antibodies 1:20 in kit supplied detection buffer, then mixed the diluted antibodies solutions (1:1 v:v). 4 μL of this solution was then added to a 384-well detection plate (Perkin Elmer; 6008230). Samples were homogenized by pipetting up and down and then transferred (16 μL of cell lysates) from the 96-well cell culture plate to two wells of the HTRF 384-well detection plate containing the antibody solution. Plates were centrifuged (524 g for 1 min) and allowed to incubate between 4 and 24 h at room temperature. The maximum signal is reached after 4 h incubation time and remains stable over a period of 24 hours. Therefore, readings can be made between 4 and 24 h of incubation. Plates were centrifuged again (524 g for 1 m), and analyzed on the EnVision plate reader using the following settings: Excitation 320 nm, Bandwidth […]; Emission 615 nm, Bandwidth […], Gain 10000, Flashes 100, Lag 60 μs.

[2] = 3.33 μM protein target, 1:7.5 protein to compound ratio (compounds 1-852)
[3] = 1 μM protein target, 1:5 protein to compound ratio (compounds 853-1279)

Sequence of Cys242 in human PIK3CA (157-299) (P42336 157-299): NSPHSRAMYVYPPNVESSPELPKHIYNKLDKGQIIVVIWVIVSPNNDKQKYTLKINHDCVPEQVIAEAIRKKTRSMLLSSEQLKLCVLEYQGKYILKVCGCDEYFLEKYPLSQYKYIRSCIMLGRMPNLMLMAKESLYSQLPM

Compound | % of modification [1, 2] | IC50 (pAKT in BT474 cells; Compounds 10-999) [nM] | IC50 (pAKT in BT474 cells; Compounds 1000-1279) [nM] | % of modification [1, 3]
C=CC(=O)N1CCc2nc(-c3nc(-c4ccc5c(c4)CNC5=O)c4ccsc4c3-c3c(F)cc(F)cc3OC(C)C)sc2C1 (single isomer, unassigned) [Compound 414] | A (percent of modification of PIK3CA protein ≥75%) | < 100 |  | 
C=CC(=O)N1CCc2nc(-c3nc(-c4ccc5c(c4)CCN(C)C5)c4ccsc4c3-c3c(F)cc(F)cc3OC(C)C)sc2C1 (single isomer, unassigned) [Compound 448] | A (percent of modification of PIK3CA protein ≥75%) | < 100 |  | 
C=CC(=O)N1CCc2nc(-c3nc(-c4ccc5c(c4)CCN(C)C5)c4ccsc4c3-c3c(F)cc(F)cc3OCCOC)sc2C1 (single isomer, unassigned) [Compound 449] | D (percent of modification <25%) | 1000 to 3000 |  | 
C=CC(=O)N1CCc2nc(-c3nc(-c4ccc5c(c4)CCN(C)C5)c4ccsc4c3-c3c(F)cc(F)cc3OCCOC)sc2C1 (single isomer, unassigned) [Compound 450] | A (percent of modification of PIK3CA protein ≥75%) | < 100 |  | 
C=C(F)C(=O)N1CCn2nc(-c3nc(-c4ccc5c(c4)CCN(C)C5)c4ccsc4c3-c3c(F)cc(F)cc3OC(C)C)cc2C1 (single isomer, unassigned) [Compound 486] | A (percent of modification of PIK3CA protein ≥75%) | < 100 |  | 
C=C(F)C(=O)N1Cc2cc(-c3nc(-c4ccc5c(c4)CCN(C)C5)c4ccsc4c3-c3c(F)cc(F)cc3OC(C)C)nn2CC1C (single isomer, unassigned) [Compound 501] | D (percent of modification <25%) | 100 to 1000 |  | 
C=CC(=O)N1CCc2nc(-c3nc(-c4cnc5c(c4)CNC(=O)C5)c4ccsc4c3-c3c(F)cc(F)cc3OC(C)C)sc2C1 (single isomer, unassigned) [Compound 587] | D (percent of modification <25%) | > 3000 |  | 
C=CC(=O)N1CCc2nc(-c3nc(-c4cnc5c(c4)CNC(=O)C5)c4ccsc4c3-c3c(F)cc(F)cc3OC(C)C)sc2C1 (single isomer, unassigned) [Compound 588] | A (percent of modification of PIK3CA protein ≥75%) | < 100 |  | 
C=CC(=O)N1CCCC1Cn1cc(-c2nc(-c3ccc4c(c3)CCNC4)c3ccsc3c2-c2ccc(F)cc2OCCOC)cn1 (stereo not drawn) [Compound 63] | A (percent of modification of PIK3CA protein ≥75%) |  |  | 
C=CC(=O)N1CCc2ccc(-c3nc(-c4ccc5c(c4)CCNC5)c4ccsc4c3-c3ccc(F)cc3OCCOC)cc21 [Compound 65] | D (percent of modification <25%) |  |  | 
C=CC(=O)N1CCCc2ccc(-c3nc(-c4ccc5c(c4)CCNC5)c4ccsc4c3-c3ccc(F)cc3OCCOC)cc21 [Compound 66] | D (percent of modification <25%) |  |  | 
C=CC(=O)N[C@H]1CCc2ccc(-c3nc(-c4ccc5c(c4)CCNC5)c4ccsc4c3-c3ccc(F)cc3OCCOC)cc21 [Compound 81] | D (percent of modification <25%) |  |  | 
COCCOc1cc(F)ccc1-c1c(-c2ccc(OC(C)C)cc2F)nc(-c2ccc3c(c2)CCNC3)c2ccsc12 [Compound 231] |  | > 3000 |  | 
CCC(=O)N1CCn2nc(-c3nc(-c4ccc5c(c4)CCNC5=O)c4ccsc4c3-c3ccc(F)cc3OC(C)C)nc2C1 [Compound 260] |  | > 3000 |  | 
CCC(=O)N1CCn2nc(-c3nc(-c4ccc5c(c4)CCNC5=O)c4ccsc4c3-c3ccc(F)cc3OC(C)C)cc2C1 [Compound 269] |  | 100 to 1000 |  | 
C=CC(=O)N1CCn2nc(-c3nc(-c4ccc5c(c4)CCN(C)C5)c4ccsc4c3-c3c(F)cc(F)cc3OC(C)C)cc2[C@@H]1C [Compound 540] |  | 1000 to 3000 |  | 
C=CC(=O)N1CCn2nc(-c3nc(-c4ccc5c(c4)CCN(C)C5)c4ccsc4c3-c3c(F)cc(F)cc3OC(C)C)cc2[C@@H]1C [Compound 541] |  | < 100 |  | 
C=CC(=O)N1CCn2nc(-c3nc(-c4ccc5c(c4)CCN(C)C5)c4ccsc4c3-c3c(F)cc(F)cc3OC(C)C)cc2[C@H]1C [Compound 542] |  | 100 to 1000 |  | 
CC1c2cc(-c3nc(-c4ccc5c(cnn5C)c4)c4ccsc4c3-c3c(F)cc(F)cc3OCCO)nn2CCN1C(=O)C(O)CO (stereo not drawn) [Compound 1235] |  |  | > 1000 | 
CC1c2cc(-c3nc(-c4ccc5c(cnn5C)c4)c4ccsc4c3-c3c(F)cc(F)cc3OCCO)nn2CCN1C(=O)C(O)CO (stereo not drawn) [Compound 1236] |  |  | > 1000 | 

The next lines start with results.

% of modification [1, 2] | IC50 (pAKT in BT474 cells; Compounds 10-999) [nM] | IC50 (pAKT in BT474 cells; Compounds 1000-1279) [nM] | Compound | % of modification [1, 3]
D (percent of modification <25%) | 1000 to 3000 |  | C=CC(=O)N1CCc2nc(-c3nc(-c4ccc5c(c4)CNC5=O)c4ccsc4c3-c3c(F)cc(F)cc3OC(C)C)sc2C1 (single isomer, unassigned) [Compound 413] | 
D (percent of modification <25%) | 100 to 1000 |  | C=CC(=O)N1CCc2nc(-c3nc(-c4ccc5c(c4)CCN(C)C5)c4ccsc4c3-c3c(F)cc(F)cc3OC(C)C)sc2C1 (single isomer, unassigned) [Compound 447] | 
D (percent of modification <25%) | > 3000 |  | C=C(F)C(=O)N1Cc2cc(-c3nc(-c4ccc5c(c4)CCN(C)C5)c4ccsc4c3-c3c(F)cc(F)cc3OC(C)C)nn2CC1C (single isomer, unassigned) [Compound 500] | 
 | > 3000 |  | C=CC(=O)N1CCc2ccc(-c3nc(-c4ccc5c(c4)CNC5=O)c4ccsc4c3-c3c(F)cc(F)cc3OCCOC)cc2C1 (single isomer, unassigned) [Compound 886] | D (percent of modification <25%)
 | < 100 |  | C=CC(=O)N1CCc2ccc(-c3nc(-c4ccc5c(c4)CNC5=O)c4ccsc4c3-c3c(F)cc(F)cc3OCCOC)cc2C1 (single isomer, unassigned) [Compound 887] | A (percent of modification of PIK3CA protein ≥75%)
 | > 3000 |  | CCC(=O)N1CC(n2cc(-c3nc(-c4ccc5c(c4)CCNC5)c4ccsc4c3-c3ccc(F)cc3OC)cn2)C1 [Compound 124] | 
 | < 100 |  | C=CC(=O)N1CCn2nc(-c3nc(-c4ccc5c(c4)CCN(C)C5)c4ccsc4c3-c3c(F)cc(F)cc3OC(C)C)cc2[C@H]1C [Compound 543] | 
 |  | > 1000 | CCC(=O)N1CCn2nc(-c3nc(-c4ccc5c(cnn5C)c4)c4ccsc4c3-c3c(F)cc(F)cc3OCCOC)cc2C1C (stereo not drawn) [Compound 1204] | 
 |  | > 1000 | COCCOc1cc(F)cc(F)c1-c1c(-c2cc3n(n2)CCN(C(=O)C(O)CO)C3C)nc(-c2ccc3c(cnn3C)c2)c2ccsc12 (stereo not drawn) [Compound 1241] | 
